In US8535661B2, “Enzymatically active compositions for suppressing sulfide generation and methods of use thereof” (LCP Tech Holdings LLC, priority 2007, dated 2013):

Key:
SRB = assay: Hydrogen sulfide from containers with SRB-contaminated sugar beet pond water
Procedure: A leachate from a sugar beet pond contaminated with SRB was fed into three 5-gallon containers filled with a nutrient source, sulfate and water. The contents in each container consisted of about 500 mL of SRB-contaminated sugar beet pond water, about 3.84 liters of vinegar (about 5% acetic acid content) about 450 mL of 0.5 N sulfuric acid, about 150 g of sodium hydroxide to adjust the pH to about 6.8, the normal pH and enough additional water to achieve a total volume of about 5 gallons. Nitrogen gas was continuously passed through the each container to eliminate any oxygen and to provide a gas flow in which to measure hydrogen sulfide generated in each container. About 500 ppm of a 10% solution of sodium hypochlorite was added to one of the reactors. An identical amount hypochlorite was added to another reactor, along with about 500 ppm of the composition of Example 1. About 500 ppm of the composition of Example 1 was added to the third container (without hypochlorite). The hydrogen sulfide level in the nitrogen gas stream from each container was monitored over time. The container treated only with the composition of the invention went to zero hydrogen sulfide production over about seven days, and stayed at zero for about four days thereafter. The container treated with bleach alone went to zero within six days and remained at zero for less than one day. […] The hydrogen sulfide concentration from the container treated with both hypochlorite and the composition of Example 1 fell to zero over about 13 days and remained at zero for greater than eight days. From the data in FIG. 4, it is clear that the enzymatically active compositions of the invention can work cooperatively with inexpensive biocidal compositions such as hypochlorite to effectively extend the useful lifetime of inexpensive biocides such as hypochlorite.

[1] = test system: Sulfide-Producing Bacteria; settings: reported biocide treatment levels; cited from earlier work
bacteria = assay: Bacterial counts in treated contaminated metalworking fluid samples; assay type: cell-based
Procedure: (§1) A used metalworking fluid from a Midwest automotive plant and a soluble oil having a high sulfate content were used to prepare synthetic effluent by combining about 200 ml of the oil with about four gallons (about 15 L) of water and one gallon (about 3.84 L) of the contaminated metal working fluid. The mixture was allowed to stand for about ten days and smelled of hydrogen sulfide by the end of this period. The mixture was then stirred and 15 samples (about 500 mL each) were removed and placed in separate containers. The containers were allowed to stand, open to the air, for about 4 additional days, after which time the aerobic bacterial count in each of the sample was measured using Biosan BF test strips. All of the samples contained >10′ bacteria/mL and smelled of hydrogen sulfide, indicating the presence of anaerobic bacteria, as well. The 15 samples, at neutral pH, were then individually treated with different biocides and combinations of biocides with the enzymatic composition of Example 1. The bacterial and yeast/mold counts in each sample were monitored over about 14 days.

yeast and mold = assay: Mold and yeast counts in treated contaminated metalworking fluid samples; assay type: cell-based
Procedure: as §1

Desulfovibrio vulgaris = assay: Sulfide concentration in nitrogen stream from Desulfovibrio vulgaris cultures; assay type: cell-based; settings: about 10 mM sodium nitrate; decrease after about 9 hours
Procedure: Laboratory studies were conducted by growing cultures of Desulfovibrio vulgaris, available from NCIMB Ltd, Aberdeen, Scotland, UK as NCIMB 8303 (see Postgate, J. R., The Sulfate-Reducing Bacteria, 2nd Ed., Cambridge University Press, Cambridge; 1984) in 100 mL aliquots of mCSB containing 12 mM sodium sulfate, 30 mM sodium lactate and 10 mM sodium nitrate in one-liter serum bottles sealed with butyl rubber stoppers, which were flushed with nitrogen and autoclaved at about 120° C. prior to use. A 2% inoculum of freshly prepared D. vulgaris culture was added to the medium in each bottle and incubated at about 30° C. Each culture was grown to mid-log phase to achieve a sulfide concentration of about 12.2±1.4 mM before adding about 25 mL of an aqueous 100 ppm solution of the enzymic composition of Example 1 to each culture. Each culture was then sparged with 99.99% pure nitrogen gas and the pH was adjusted to 6.4 using a dilute solution of nitric acid. The sulfide concentration in the nitrogen stream from each culture bottle was monitored as a function of time.

[2] = about 500 ppm of each agent (hypochlorite as 10% solution), pH about 6.8

With OCl [hypochlorite, sodium hypochlorite] the “time hydrogen sulfide stayed at zero” value (SRB; [2]) was “less than one”, the “time to zero hydrogen sulfide production” value (SRB; [2]) was “six” and the “additional suppression of hydrogen sulfide production” value (SRB; after another identical dose of hypochlorite) was “less than one”.
For O=CCCCC=O [Glutaraldehyde], the “Minimum Concentration that prevents sulfide production” value [1] is listed as 500 mg/L.
In the case of “tetrakis(hydroxymethyl)phosphonium sulfate [Sample 14]”, the “Bacterial Counts” value (bacteria; Day 0) is reported as >10^7 bacteria/mL, the “Bacterial Counts” value (bacteria; Day 1) is reported as <100 bacteria/mL and the “Bacterial Counts” value (bacteria; Day 3) is reported as 100 bacteria/mL. The “Bacterial Counts” value (bacteria; Day 4) was 100 bacteria/mL, the “Bacterial Counts” value (bacteria; Day 6) was 1000 bacteria/mL and the “Bacterial Counts” value (bacteria; Day 8) was 10^5 bacteria/mL. The “Bacterial Counts” value (bacteria; Day 10) was >10^7 bacteria/mL, the “Bacterial Counts” value (bacteria; Day 12) was >10^7 bacteria/mL and the “Bacterial Counts” value (bacteria; Day 14) was >10^7 bacteria/mL. The “Mold and Yeast Counts” value (yeast and mold; Day 0) was 10^4, the “Mold and Yeast Counts” value (yeast and mold; Day 1) was 0 and the “Mold and Yeast Counts” value (yeast and mold; Day 3) was 0. The “Mold and Yeast Counts” value (yeast and mold; Day 4) was 0, the “Mold and Yeast Counts” value (yeast and mold; Day 6) was 100 and the “Mold and Yeast Counts” value (yeast and mold; Day 8) was 10^3. For the same compound, the “Mold and Yeast Counts” value (yeast and mold; Day 10) was 10^3, the “Mold and Yeast Counts” value (yeast and mold; Day 12) was 10^3 and the “Mold and Yeast Counts” value (yeast and mold; Day 14) was 10^3.
With “tetrakis(hydroxymethyl)phosphonium sulfate [Sample 13]” the “Bacterial Counts” value (bacteria; Day 0) was >10^7 bacteria/mL, the “Bacterial Counts” value (bacteria; Day 1) was <100 bacteria/mL and the “Bacterial Counts” value (bacteria; Day 3) was <100 bacteria/mL. The “Bacterial Counts” value (bacteria; Day 4) was 100 bacteria/mL, the “Bacterial Counts” value (bacteria; Day 6) was 1000 bacteria/mL and the “Bacterial Counts” value (bacteria; Day 8) was 1000 bacteria/mL. For the same compound, the “Bacterial Counts” value (bacteria; Day 10) was >10^5 bacteria/mL, the “Bacterial Counts” value (bacteria; Day 12) was 10^6 bacteria/mL and the “Bacterial Counts” value (bacteria; Day 14) was >10^7 bacteria/mL. For the same compound, the “Mold and Yeast Counts” value (yeast and mold; Day 0) was 10^3, the “Mold and Yeast Counts” value (yeast and mold; Day 1) was 0 and the “Mold and Yeast Counts” value (yeast and mold; Day 3) was 0. For the same compound, the “Mold and Yeast Counts” value (yeast and mold; Day 4) was 0, the “Mold and Yeast Counts” value (yeast and mold; Day 6) was 0 and the “Mold and Yeast Counts” value (yeast and mold; Day 8) was 100. For the same compound, the “Mold and Yeast Counts” value (yeast and mold; Day 10) was 10, the “Mold and Yeast Counts” value (yeast and mold; Day 12) was 100 and the “Mold and Yeast Counts” value (yeast and mold; Day 14) was 10^3.
For [O]=[Mo](=[O])([O-])[O-] [Molybdate], the “Minimum Concentration that prevents sulfide production” value [1] is given as 120 mg/L.
With CCCCNC(=O)OCC#CI [Sample 8, 3-iodo-2-propynyl butyl carbamate] the “Bacterial Counts” value (bacteria; Day 0) was >10^7 bacteria/mL, the “Bacterial Counts” value (bacteria; Day 1) was <100 bacteria/mL and the “Bacterial Counts” value (bacteria; Day 3) was <100 bacteria/mL. The “Bacterial Counts” value (bacteria; Day 4) was 100 bacteria/mL, the “Bacterial Counts” value (bacteria; Day 6) was 100 bacteria/mL and the “Bacterial Counts” value (bacteria; Day 8) was 100 bacteria/mL. The “Bacterial Counts” value (bacteria; Day 10) was 10^4 bacteria/mL, the “Bacterial Counts” value (bacteria; Day 12) was 10^5 bacteria/mL and the “Bacterial Counts” value (bacteria; Day 14) was >10^7 bacteria/mL. The “Mold and Yeast Counts” value (yeast and mold; Day 0) was 10^4, the “Mold and Yeast Counts” value (yeast and mold; Day 1) was 0 and the “Mold and Yeast Counts” value (yeast and mold; Day 3) was 0. For the same compound, the “Mold and Yeast Counts” value (yeast and mold; Day 4) was 0, the “Mold and Yeast Counts” value (yeast and mold; Day 6) was 100 and the “Mold and Yeast Counts” value (yeast and mold; Day 8) was 10^3. For the same compound, the “Mold and Yeast Counts” value (yeast and mold; Day 10) was 10^3, the “Mold and Yeast Counts” value (yeast and mold; Day 12) was 10^3 and the “Mold and Yeast Counts” value (yeast and mold; Day 14) was 10^3.
For OCCN1CN(CCO)CN(CCO)C1 [Sample 3, hexahydro-1,3,5-tris(2-hydroxyethyl)-s-triazine], the “Bacterial Counts” value (bacteria; Day 0) was >10^7 bacteria/mL, the “Bacterial Counts” value (bacteria; Day 1) was <100 bacteria/mL and the “Bacterial Counts” value (bacteria; Day 3) was <100 bacteria/mL. The “Bacterial Counts” value (bacteria; Day 4) was 100 bacteria/mL, the “Bacterial Counts” value (bacteria; Day 6) was 1000 bacteria/mL and the “Bacterial Counts” value (bacteria; Day 8) was 10^4 bacteria/mL. For the same compound, the “Bacterial Counts” value (bacteria; Day 10) was >10^7 bacteria/mL, the “Bacterial Counts” value (bacteria; Day 12) was 10^6 bacteria/mL and the “Bacterial Counts” value (bacteria; Day 14) was >10^7 bacteria/mL. For the same compound, the “Mold and Yeast Counts” value (yeast and mold; Day 0) was 10^4, the “Mold and Yeast Counts” value (yeast and mold; Day 1) was 0 and the “Mold and Yeast Counts” value (yeast and mold; Day 3) was 0. The “Mold and Yeast Counts” value (yeast and mold; Day 4) was 0, the “Mold and Yeast Counts” value (yeast and mold; Day 6) was 10 and the “Mold and Yeast Counts” value (yeast and mold; Day 8) was 10. For the same compound, the “Mold and Yeast Counts” value (yeast and mold; Day 10) was 10^3, the “Mold and Yeast Counts” value (yeast and mold; Day 12) was 10^4 and the “Mold and Yeast Counts” value (yeast and mold; Day 14) was 10^3.
In the case of O=[N+]([O-])[O-].[Na+] [sodium nitrate], the “extent of decrease in sulfide production relative to the decrease observed with the composition of Example 1” value (Desulfovibrio vulgaris) is reported as 10-15%.
For O=NO [Nitrite], the “Minimum Concentration that prevents sulfide production” value [1] is given as 230 mg/L.
For Benzalkonium chloride, the “Minimum Concentration that prevents sulfide production” value [1] is given as 50 mg/L.
In the case of CCCCNC(=O)OCC#CI [Sample 7, 3-iodo-2-propynyl butyl carbamate], the “Bacterial Counts” value (bacteria; Day 0) is reported as >10^7 bacteria/mL, the “Bacterial Counts” value (bacteria; Day 1) is reported as <100 bacteria/mL and the “Bacterial Counts” value (bacteria; Day 3) is reported as <100 bacteria/mL. For the same compound, the “Bacterial Counts” value (bacteria; Day 4) was 100 bacteria/mL, the “Bacterial Counts” value (bacteria; Day 6) was 100 bacteria/mL and the “Bacterial Counts” value (bacteria; Day 8) was 100 bacteria/mL. The “Bacterial Counts” value (bacteria; Day 10) was 1000 bacteria/mL, the “Bacterial Counts” value (bacteria; Day 12) was 10^4 bacteria/mL and the “Bacterial Counts” value (bacteria; Day 14) was 10^5 bacteria/mL. For the same compound, the “Mold and Yeast Counts” value (yeast and mold; Day 0) was 10^3, the “Mold and Yeast Counts” value (yeast and mold; Day 1) was 0 and the “Mold and Yeast Counts” value (yeast and mold; Day 3) was 0. For the same compound, the “Mold and Yeast Counts” value (yeast and mold; Day 4) was 0, the “Mold and Yeast Counts” value (yeast and mold; Day 6) was 0 and the “Mold and Yeast Counts” value (yeast and mold; Day 8) was 100. The “Mold and Yeast Counts” value (yeast and mold; Day 10) was 10, the “Mold and Yeast Counts” value (yeast and mold; Day 12) was 100 and the “Mold and Yeast Counts” value (yeast and mold; Day 14) was 10^3.
With OCCN1CN(CCO)CN(CCO)C1 [Sample 4, hexahydro-1,3,5-tris(2-hydroxyethyl)-s-triazine] the “Bacterial Counts” value (bacteria; Day 0) was >10^7 bacteria/mL, the “Bacterial Counts” value (bacteria; Day 1) was <100 bacteria/mL and the “Bacterial Counts” value (bacteria; Day 3) was 100 bacteria/mL. The “Bacterial Counts” value (bacteria; Day 4) was 100 bacteria/mL, the “Bacterial Counts” value (bacteria; Day 6) was 1000 bacteria/mL and the “Bacterial Counts” value (bacteria; Day 8) was 10^5 bacteria/mL. The “Bacterial Counts” value (bacteria; Day 10) was >10^7 bacteria/mL, the “Bacterial Counts” value (bacteria; Day 12) was >10^7 bacteria/mL and the “Bacterial Counts” value (bacteria; Day 14) was >10^7 bacteria/mL. For the same compound, the “Mold and Yeast Counts” value (yeast and mold; Day 0) was 10^3, the “Mold and Yeast Counts” value (yeast and mold; Day 1) was 0 and the “Mold and Yeast Counts” value (yeast and mold; Day 3) was 0. For the same compound, the “Mold and Yeast Counts” value (yeast and mold; Day 4) was 0, the “Mold and Yeast Counts” value (yeast and mold; Day 6) was 0 and the “Mold and Yeast Counts” value (yeast and mold; Day 8) was 100. For the same compound, the “Mold and Yeast Counts” value (yeast and mold; Day 10) was 10, the “Mold and Yeast Counts” value (yeast and mold; Day 12) was 100 and the “Mold and Yeast Counts” value (yeast and mold; Day 14) was 100.
